The subject of this data set is HepG2 cells. Kind of data set: Cell viability test (MTT assay) against oxidative stress induced by AA+iron. As to conditions: for hepatocellular protective effect (cell viability): AA+iron in HepG2, compared with genistein and luteolin at the same concentration, FIG. 1. The format is cell-based, human. On the procedure:
HepG2 cell, a human-derived liver parenchymal cell line, was purchased from the American Type Culture Collection (ATCC, Rockville, MD, USA). Dulbecco's modified Eagle's medium (DMEM; Gibco) mixed with heat-treated 10% fetal bovine serum (FBS; Gibco), 100 units/ml of penicillin, and 100 μg/mL of streptomycin (Gibco) was used to culture HepG2 cells in an incubator maintained at 37° C. and 5% CO2 conditions. Cells were cultured in a 100 mm dish to a confluence of 80% or more, and subcultured twice a week at a ratio of 1:4. After serum-starvation for 12 hours, drugs were treated at different concentrations, and 1 hour later, 10 μM of AA was treated for 12 hours, and then treated with 5 μM of iron, and further cultured for 5 hours.
Cell viability was measured by MTT assay. HepG2 cells were dispensed in 0.5 mL/well at a concentration of 2×10^5 cells/well in a 24-well plate, and then cultured for 24 hours. After serum was depleted for 12 hours, the drug was treated for 1 hour, and then 10 μM of AA was treated for 12 hours, and 5 μM of iron was added and cultured for 5 hours. Herein, 300 μL of MTT 0.5 mg/mL per well was treated and reacted at 37° C. for 2 hours. After carefully removing the medium and dissolving formazan crystals produced by reducing MTT with dimethylsulfoxide (DMSO), absorbance was measured at 570 nm using a microplate measuring instrument (Tecan Infinite M200 PRO, USA).
In addition, in order to identify the cell viability according to the mixed use of icaritin and quercetin according to the results of FIG. 1, HepG2 cells were dispensed in 2×10^5 cells/well into a 24-well plate and cultured for 24 hours. After treatment for 1 hour at the concentrations shown in Table 1 below, 10 μM of AA was treated for 12 hours, and 5 μM of iron was added and cultured for 5 hours. […] The absorbance was measured at 570 nm using a microplate measuring instrument (Tecan Infinite M200 PRO, USA).
Background: Formazan colour is commonly taken as a measure of viable cells.

Consider `COc1ccc(-c2oc3c(CC=C(C)C)c(O)cc(O)c3c(=O)c2O)cc1` [Comparative Example 1, icaritin], for which the “hepatocellular protective effect (cell viability)” value is “most significant hepatocellular protective effects”.

For the molecule `O=c1c(O)c(-c2ccc(O)c(O)c2)oc2cc(O)cc(O)c12` [Comparative Example 2, quercetin], the “hepatocellular protective effect (cell viability)” value is on record as “most significant hepatocellular protective effects”. Also, the cell viability entry (HepG2, drug 1 h, then 10 μM AA 12 h + 5 μM iron 5 h, MTT, FIG. 2) is on record as “about 47.9±0.4%”.
